The values that follow come from patent US8648012B2, “Herbicidal compositions comprising naptalam” (BASF SE, priority 2009, dated 2014).

The subject of test [1] is common amaranth (Amaranthus retroflexus AMARE). Kind of test: Example 6: weed control of clopyralid or picloram plus naptalam mixtures. Type of test: in vivo. As to conditions: postemergence. On the procedure: (§1) Seedlings of common amaranth (Amaranthus retroflexus AMARE) and common lambsquarters (Chenopodium album; CHEAL), each 8 to 10 cm in height, were treated with postemergence applications of either clopyralid at 53.5 g ae/ha, picloram at 5.6 g ae/ha or naptalam at 140 g ae/ha, or the combination of clopyralid and naptalam at 53.5 g ae/ha and 140 g ae/ha, or the combination of picloram and naptalam at 5.6 g ae/ha and 140 g ae/ha, respectively, when they were 8-10 cm in height. All treatment mixtures contained 0.25% (v/v) non-ionic surfactant. […] Percent injury data was collected 10 days after treatment (DAT).

Test [2] relates to common lambsquarters (Chenopodium album; CHEAL). The test is described as above. Type of test: in vivo. As to conditions: postemergence. On the procedure: as §1
Test [3] concerns sunflower (helianthus sp. HELSS). Kind of test: Example 8: weed control of clopyralid+naptalam mixtures. The format is in vivo. Particulars: postemergence. How it is done:
Seedlings of sunflower (helianthus sp. HELSS) were treated with postemergence applications of either clopyralid at 210 g ae/ha or at 105 g ae/ha, or naptalam at 56 g ae/ha, or the combination of clopyralid and naptalam at 210+56 g ae/ha or at 105+56 g ae/ha, respectively, when they were 8-10 cm in height. All treatment mixtures contained 0.25% (v/v) non-ionic surfactant. […] Percent injury data was collected 10 days after treatment (DAT).

In test [4] the test system is Winter wheat (Triticum aestivum, TRZAW). Kind of test: Example 3: preemergence crop selectivity of dicamba plus naptalam. Type of test: in vivo. Particulars: 13 DAT. On the procedure:
(§2) In all use examples, plants were grown in a greenhouse environment.
(§3) Naptalam was used as a commercial SL formulation containing 240 g/l of naptalam (Alanap-L from Cheminova). Clopyralid was used as a commercial SL formulation containing 360 g/l of clopyralid (Stinger of Dow Agroscience). Picloram was used as a commercial SL formulation containing 240 g/l of picloram (Tordon 22K of Dow Agroscience). A mixture of 2,4-D+MCPP+Dicamba was used as a commercial SL formulation containing 283 g/l of 2,4-D, 63 g/l of MCPP and 25 g/l of Dicamba (Trimec Classic of PBI Gordon Corp.). Dicamba was used as a commercial SL formulation containing 480 g/l of Dicamba (Clarity BASF).
(§4) The evaluation for the plant damage or injury caused by the chemical compositions was carried out using a scale from 0 to 100%, when compared with the untreated control plants. Here, 0 means no damage and 100 means complete destruction of the plants. I50 values were estimated from % injury data at different application rates by non-linear regression of log-logistic dose-response curves.
Winter wheat (Triticum aestivum, TRZAW) seeds were sown into soil, and the following day treated with five different rates of dicamba between 5.6 and 560 g ae/ha. Diflufenzopr (DFFP) or naptalam at rates of 224 g ae/ha was applied either alone or in combination with dicamba treatments. Following application, pots were placed in a completely randomized design with four replications per treatment. Percent injury data was collected 13 DAT.

For test [5], the system named is perennial ryegrass (Lolium perenne, LOLPE). Kind of test: Example 4: postemergence turf selectivity of dicamba plus naptalam. The format is in vivo. As to conditions: 13 DAT. On the procedure: as §2, §3, §4
(§5) Seedlings of tall fescue (Festuca arundinacea, FESAR) or perennial ryegrass (Lolium perenne, LOLPE) were treated with five different rates of dicamba between 28 and 2800 g ae/ha when they were 10-14 cm in height. DFFP or naptalam at rates of 140 g ae/ha were applied either alone or in combination with dicamba treatments. All treatment mixtures contained 0.25% (v/v) non-ionic surfactant plus 1% (w/v) ammonium sulfate. Following treatment, plants were placed in a completely randomized design with four replications per treatment. Percent injury data was collected 13 DAT.

For test [6], the system named is tall fescue (Festuca arundinacea, FESAR). The description is as above. Type of test: in vivo. Particulars: 13 DAT. How it is done: as §2, §3, §4, §5
For another test, the system named is TRZAW. Kind of test: Example 5: postemergence wheat selectivity of dicamba plus naptalam. Particulars: 8 DAT. Type of test: in vivo, Triticum aestivum. On the procedure:
as §2, §3, §4
Seedlings of TRZAW were treated with five different rates of dicamba between 14 and 1400 g ae/ha when they were 12-14 cm in height. In addition, DFFP or naptalam at 70 g ae/ha were applied either alone or in combination with dicamba treatments. All treatment mixtures contained 0.25% (v/v) non-ionic surfactant plus 1% (w/v) ammonium sulfate. Following treatment, plants were placed in a completely randomized design with four replications per treatment. Percent injury data was collected 8 DAT.

The test system of test [7] is Palmer amaranth (Amaranthus palmeri; AMAPA). Kind of test: Example 1: postemergence weed control of dicamba plus naptalam mixtures, greenhouse. The format is in vivo. As to conditions: 10 DAT. On the procedure:
as §2, §3, §4
(§6) 22 ff. E=X+Y−(X·Y/100) where • X=effect in percent using herbicide A at an application rate a; • Y=effect in percent using herbicide B at an application rate b; • E=expected effect (in %) of A+B at application rates a+b.
(§7) The value E corresponds to the effect (plant damage or injury) which is to be expected if the activity of the individual compounds is just additive. If the observed effect is higher than the value E calculated according to Colby, a synergistic effect is present.
(§8) Seedlings of velvetleaf (Abutilon theophrasti; ABUTH), Palmer amaranth (Amaranthus palmeri; AMAPA), and common lambsquarters (Chenopodium album; CHEAL) were treated with postemergence applications of either dicamba at 140 or 280 g ae/ha, naptalam at 56 g ae/ha, or the combination of dicamba and naptalam at 140 and 56 g ae/ha, respectively, when they were 10-12 cm in height. All treatment mixtures contained 0.25% (v/v) non-ionic surfactant plus 1% (w/v) ammonium sulfate. Plants were placed in a completely randomized design with four replications per treatment. Percent injury data was collected 10 days after treatment (DAT).

For test [8], the system named is common lambsquarters (Chenopodium album; CHEAL). Described as above. The format is in vivo. As to conditions: 10 DAT. How it is done: as §2, §3, §4, §6, §7, §8
Test [9] deals with velvetleaf (Abutilon theophrasti; ABUTH). The test is described as above. As to conditions: 10 DAT. The format is in vivo. How it is done: as §2, §3, §4, §6, §7, §8
The test system of a further test is ABUTH. As to conditions: naptalam 0 g ae/ha. On the procedure: as §2, §3, §4
(§9) Seedlings of ABUTH or CHEAL were treated with five different rates of dicamba between 0.14 and 140 g ae/ha when they were 10-12 cm in height. Naptalam was mixed with dicamba at rates of 0, 28, 35, 47, 70, or 140 g ae/ha to each dose-response series. All treatment mixtures included the addition of 0.25% (v/v) non-ionic surfactant and 1% (w/v) ammonium sulfate. Plants were placed in a completely randomized design with four replications per treatment. Percent injury data was collected 11 DAT and used to estimate the amount of dicamba necessary to obtain 50% injury (I50). […] estimates for solo applications of dicamba (I50 (—NPA)) were compared with I50 estimates for the combined application of dicamba and naptalam (I50 (+NPA)) to determine the relative increase of dicamba activity through the addition of naptalam.

The next test relates to CHEAL. Particulars: naptalam 0 g ae/ha. How it is done:
as §2, §3, §4, §9

Test [10] has as its system sunflower (helianthus sp. HELSS). Kind of test: Example 7: weed control of 2,4-D+MCPP+dicamba+naptalam mixtures. The format is in vivo. As to conditions: postemergence, naptalam 56 g ae/ha. How it is done:
as §2, §3, §4
Plants were placed in a completely randomized design with four replications per treatment. Percent injury data was collected 10 days after treatment (DAT).

[11] abbreviates: DFFP 140 g ae/ha alone (dicamba 0).
[12] abbreviates: naptalam 140 g ae/ha alone (dicamba 0).

SMILES strings stand for the structures.

In the case of `O=C(O)c1nc(Cl)ccc1Cl` [Clopyralid, clopyralid], the “Mean % Control (10 DAT) AMARE” value in [1] (clopyralid 53.5 g ae/ha) is given as 23%. Besides, the “Mean % Control (10 DAT) CHEAL” value in test [2] (clopyralid 53.5 g ae/ha) turned out to be 25%. In addition, the “Mean % Control (10 DAT) HELSS” value in test [3] (clopyralid 105 g ae/ha) amounted to 28%; in [3] (clopyralid 210 g ae/ha), 83%.

`C/C(=N\NC(=O)Nc1cc(F)cc(F)c1)c1ncccc1C(=O)O` [DFFP, diflufenzopyr]: the “TRZAW Mean % Injury” value was found to be 61.3% in test [4] (DFFP 224 g ae/ha alone (dicamba 0)) and 8.8% in the test on TRZAW (DFFP 70 g ae/ha alone (dicamba 0)). In addition, the “LOLPE Mean % Injury” value in test [5] (setting [11]) was 30.0 c %. For the same molecule, the “FESAR Mean % Injury” value in test [6] (setting [11]) came to 38.8 b %.

As to `COc1c(Cl)ccc(Cl)c1C(=O)O` [Dicamba, 3,6-dichloro-2-methoxybenzoic acid], the “Mean % Control AMAPA” value in [7] (dicamba 140 g ae/ha) is listed as 80.0%; in test [7] (dicamba 280 g ae/ha), 96.3%. Also, the “Mean % Control CHEAL” value was 86.3% in test [8] (dicamba 140 g ae/ha) and 98.5% in test [8] (dicamba 280 g ae/ha). In addition, the “Mean % Control ABUTH” value was found to be 65.0% in test [9] (dicamba 140 g ae/ha) and 91.3% in test [9] (dicamba 280 g ae/ha). Also, the “ABUTH I50 (amount of dicamba for 50% injury)” value in the test on ABUTH (11 DAT) is 80.2 g ae/ha. Further, in the test on ABUTH, the “ABUTH Fold-increase of dicamba activity = I50 (-NPA)/I50(+NPA)” value is on record as 1.0. For the same molecule, the “CHEAL I50 (amount of dicamba for 50% injury)” value with CHEAL (11 DAT) stood at 35.2 g ae/ha. For the same molecule, the “CHEAL Fold-increase of dicamba activity = I50 (-NPA)/I50(+NPA)” value in the test on CHEAL was 1.0. For the same molecule, the “TRZAW Mean % Injury” value in test [4] (dicamba alone 5.6 g ae/ha) was 0%; in [4] (dicamba alone 17.7 g ae/ha), 0%; in [4] (dicamba alone 56.0 g ae/ha) it was 0%; in test [4] (dicamba alone 177.0 g ae/ha), 0%; in test [4] (dicamba alone 560.0 g ae/ha), 76.3%; with TRZAW (dicamba alone 14.0 g ae/ha) it was 0%. Also, the “TRZAW Mean % Injury” value in the test on TRZAW (dicamba alone 44.0 g ae/ha) is 2.5%; with TRZAW (dicamba alone 140 g ae/ha), 5.0%; with TRZAW (dicamba alone 440 g ae/ha), 25.0%; with TRZAW (dicamba alone 1400 g ae/ha) it was 50.0%. Besides, the “LOLPE Mean % Injury” value in test [5] (dicamba alone 28.0 g ae/ha) worked out at 0 e %; in test [5] (dicamba alone 88.5 g ae/ha), 0 e %; in test [5] (dicamba alone 280 g ae/ha), 0 e %; in test [5] (dicamba alone 885 g ae/ha) it was 0 e %; in test [5] (dicamba alone 2800 g ae/ha), 7.5 de %. Moreover, the “FESAR Mean % Injury” value in test [6] (dicamba alone 28.0 g ae/ha) worked out at 0 c %; in [6] (dicamba alone 88.5 g ae/ha), 2.5 c %; in test [6] (dicamba alone 280 g ae/ha), 5.0 c %; in test [6] (dicamba alone 885 g ae/ha) it was 7.5 c %; in test [6] (dicamba alone 2800 g ae/ha), 32.5 b %.

Take `O=C(O)c1ccccc1C(=O)Nc1cccc2ccccc12` [Naptalam, N-1-naphthylphthalamic acid]: the “Mean % Control AMAPA” value in [7] (naptalam 56 g ae/ha) was found to be 18.8%. Also, the “Mean % Control CHEAL” value in test [8] (naptalam 56 g ae/ha) came to 0%. In addition, the “Mean % Control ABUTH” value in test [9] (naptalam 56 g ae/ha) is listed as 0%. Also, the “TRZAW Mean % Injury” value (in test [4] (naptalam 224 g ae/ha alone (dicamba 0)); with TRZAW (naptalam 70 g ae/ha alone (dicamba 0))) was 0% each time. The “LOLPE Mean % Injury” value in [5] (setting [12]) came to 0 e %. In [6] (setting [12]), the “FESAR Mean % Injury” value worked out at 0 c %. In test [1] (naptalam 140 g ae/ha), the “Mean % Control (10 DAT) AMARE” value came to 0%. The “Mean % Control (10 DAT) CHEAL” value in test [2] (naptalam 140 g ae/ha) is reported as 5%. For the same molecule, the results for the “Mean % Control (10 DAT) HELSS” value in test [10] and in test [3] (naptalam 56 g ae/ha) were 12% and 10%, respectively.

As to `Nc1c(Cl)c(Cl)nc(C(=O)O)c1Cl` [Picloram, picloram], in test [1] (picloram 5.6 g ae/ha), the “Mean % Control (10 DAT) AMARE” value is 43%. Moreover, in [2] (picloram 5.6 g ae/ha), the “Mean % Control (10 DAT) CHEAL” value amounted to 43%.
